Laboratory results as given in patent US8008283B2, “Methods and compositions for the treatment of neuropsychiatric disorders” (Neurotherapeutics Pharma, Inc., priority 2005, dated 2011).

Columns and labels:
rats [1] = experiment: contextual fear conditioning in rats (freezing); assay type: in vivo, rat; conditions: I.V. in DMSO, furosemide 100 mg/kg, bumetanide 50 mg/kg; compared with vehicle alone; FIG. 5
Description: Contextual fear conditioning involves pairing an aversive event, in this case moderate foot shock, with a distinctive environment. The strength of the fear memory is assessed using freezing, a species-typical defensive reaction in rats, marked by complete immobility, except for breathing. […] However, if they are allowed to explore the distinctive environment sometime before the immediate shock, they show intense anxiety and fear when placed back into the same environment. We can take advantage of this fact and, by procedurally dividing contextual fear conditioning into two phases, we can separately study effects of treatments on memory for the context (specifically a hippocampus based process) from learning the association between context and shock or experiencing the aversiveness of the shock (which depend upon emotional response circuitry including amygdala). […] The experiment employed 24 rats. […] Each rat was again placed into the same environment for 8 min during which time freezing was measured, as an index of Pavlovian conditioned fear. […] Measurement of freezing was accomplished through an overhead video camera connected to the microcomputer and was automatically scored using a specialty piece of software, FreezeFrame (OER Inc., Reston, Va.). Total freezing time was analyzed in a one-way analysis of variance (ANOVA) test, with drug dose as the […] factor.

rats [2] = experiment: fear potentiated startle (FPS) test in rats; assay type: in vivo, rat
Description: Twenty-four rats received a 30 min period of habituation to the FPS apparatus. Twenty-four hours later, baseline startle amplitudes were collected. The rats were then divided into three matched groups based on baseline startle amplitudes. […] Groups 1 and 2 therefore consisted of 8 rats each, with Group 3 consisting of […]. Following baseline startle amplitude collection, 20 light/shock pairings were delivered on two sessions over two consecutive days (i.e., 10 light/shock pairings per day). […] Immediately following injections, startle amplitudes were assessed during startle alone trials and startle plus fear (light followed by startle) trials. Fear potentiated startle (light+startle amplitudes minus startle alone amplitudes) was compared between the treatment groups.
Animals were trained and tested in four identical stabilimeter devices (Med-Associates). Briefly, each rat was placed in a small Plexiglas cylinder. The floor of each stabilimeter consisted of four 6-mm-diameter stainless steel bars spaced 18 mm apart through which shock can be delivered. Cylinder movements result in displacement of an accelerometer where the resultant voltage is proportional to the velocity of the cage displacement. Startle amplitude is defined as the maximum accelerometer voltage that occurs during the first 0.25 sec after the startle stimulus is delivered. […] Each stabilimeter was enclosed in a ventilated, light-, and sound-attenuating box. All sound level measurements were made with a Precision Sound Level Meter. The noise of a ventilating fan attached to a sidewall of each wooden box produced an overall background noise level of 64 dB. The startle stimulus was a 50 ms burst of white noise (5 ms rise-decay time) generated by a white noise generator. The visual conditioned stimulus employed was illumination of a light bulb adjacent to the white noise source. The unconditioned stimulus was a 0.6 mA foot shock with duration of 0.5 sec, generated by four constant-current shockers located outside the chamber. The presentation and sequencing of all stimuli were under the control of the microcomputer.
FPS procedures consisted of 5 days of testing; during days 1 and 2 baseline startle responses were collected, days 3 and 4 light/shock pairings were delivered, day 5 testing for fear potentiated startle was conducted.
Matching: On the first two days all rats were placed in the Plexiglas cylinders and 3 min later presented with 30 startle stimuli at a 30 sec interstimulus interval.
Training: On the following 2 days, rats were placed in the Plexiglas cylinders. […] The shock was delivered during the last 0.5 sec of the 3.7 sec CSs at an average intertrial interval of 4 min (range, 3-5 min).
These initial startle stimuli were used to again habituate the rats to the acoustic startle stimuli. Thirty seconds after the last of these stimuli, each animal received 60 startle stimuli with half of the stimuli presented alone (startle alone trials) and the other half presented 3.2 sec after the onset of the 3.7 sec CS (CS-startle trials). All startle stimuli are presented at a mean 30 sec interstimulus interval, randomly varying between 20 and 40 sec.
Measures: The treatment groups were compared on the difference in startle amplitude between CS-startle and startle-alone trials (fear potentiation).
The therapeutic efficacy of several bumetanide analogs in alleviating anxiety was examined using the fear potentiated startle (FPS) test in rats as described above.

human skin = conditions: Willis et al.; cited from earlier work
rats [3] = conditions: Granados-Soto et al. Pain 2005; cited from earlier work

With CCCCNc1cc(C(=O)O)cc(S(N)(=O)=O)c1Oc1ccccc1 [bumetanide] the freezing (rats [1]) was “significantly less freezing”, the “difference score one week after treatment” value (rats [2]; compared with vehicle alone, FIG. 10) was “higher difference score” and the “statistical difference from vehicle in difference score one week after treatment” value (rats [2]; error bars large for vehicle-treated animals) was “does not imply any statistically significant difference”. For the same compound, the “difference score (startle alone - fear potentiated startle) on the test day” value (rats [2]; i.v. in DMSO, furosemide 100 mg/kg, bumetanide 70 mg/kg, compared with vehicle alone, FIG. 8) was “statistically significantly lower difference score”, the “sensory nerve activation, itch and flare responses induced by histamine” value (human skin) was “inhibit sensory nerve activation to reduce the itch and flare responses” and the formalin-induced nociception (rats [3]) was “reduced”.
For NS(=O)(=O)c1cc(C(=O)O)cc(N2CCCC2)c1Oc1ccccc1 [piretanide], the formalin-induced nociception (rats [3]) is given as “reduced”.
In the case of CCCc1c2oc(C(=O)O)cc(=O)c2cc2c(=O)cc(C(=O)O)n(CC)c12 [nedocromil sodium], the “sensory nerve activation, itch and flare responses induced by histamine” value (human skin) is given as “inhibit sensory nerve activation to reduce the itch and flare responses”.
